Values of other authors in patent US20100056488A1, “CORTICOSTEROID CONJUGATES AND USES THEREOF” (The McLean Hospital Corporation, priority 2002, published 2010).

Columns and labels:
[1] = system: cortisol production or ACTH; conditions: suppression of cortisol production or ACTH
[2] = system: ether-stress induced increase in corticosterone; conditions: dose 0.025 mg/kg; higher dose necessary to fully eliminate response
[3] = system: corticosterone production; conditions: suppression for 24 hours

For `C[C@]12CCC(=O)C=C1CC[C@@H]1[C@@H]2[C@@H](O)C[C@@]2(C)[C@H]1CC[C@]2(O)C(=O)COC(=O)CCC(=O)O` [Hydrocortisone sodium succinate], the CNS activity [1] is given as “CNS active”.

In the case of `C[C@@H]1C[C@H]2[C@@H]3CCC4=CC(=O)C=C[C@]4(C)[C@@]3(F)[C@@H](O)C[C@]2(C)[C@@]1(O)C(=O)CO` [dexamethasone], the “suppression of ether-stress induced increase in corticosterone” value [2] is given as “significantly suppressed” and the “lowest dose fully effective in suppressing basal corticosterone production” value [3] is given as 0.025 mg/kg.
